Measured values taken from ChEMBL document CHEMBL1201862, “PubChem BioAssay data set” (2004).
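Five compound concentrations were applied to cells in 96-well plates for 48 hours; endpoints were derived by simple linear interpolation of the resulting dose-response curve. At the GI50, growth is halved.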 Calls of active or inactive are those of the source. Cut-off read from the data, not from the text of the source: active = GI50 up to about 1.1 µM and inactive = higher.

Experiments:
Assay in all cases: NCI-60 cell line screen, 48 h
[1] = test system: EKVX
[2] = test system: HOP-92
[3] = test system: SK-MEL-2
[4] = test system: TK-10
[5] = test system: NCI-H460
[6] = test system: HCC 2998
[7] = test system: ACHN
[8] = test system: K562
[9] = test system: MDA-MB-435
[10] = test system: SK-OV-3
[11] = test system: NCI/ADR-RES
[12] = test system: OVCAR-8
[13] = test system: UO-31
[14] = test system: A549
[15] = test system: SK-MEL-28
[16] = test system: HL-60
[17] = test system: UACC-257
[18] = test system: LOX IMVI
[19] = test system: NCI-H522
[20] = test system: OVCAR-5

| Compound | GI50 [1] | GI50 [2] | GI50 [3] | GI50 [4] | GI50 [5] | GI50 [6] | GI50 [7] | GI50 [8] | GI50 [9] | GI50 [10] | GI50 [11] | GI50 [12] | GI50 [13] | GI50 [14] | GI50 [15] | GI50 [16] | GI50 [17] | GI50 [18] | GI50 [19] | GI50 [20] |
| --- | --- | --- | --- | --- | --- | --- | --- | --- | --- | --- | --- | --- | --- | --- | --- | --- | --- | --- | --- | --- |
| COc1cc(CNC(=O)CCCCCCCC/C=C/Br)ccc1O | > 10 µM (inactive) | > 10 µM (inactive) | > 10 µM (inactive) | > 10 µM (inactive) | > 10 µM (inactive) | > 10 µM (inactive) | > 10 µM (inactive) | > 10 µM (inactive) | > 10 µM (inactive) | > 10 µM (inactive) | > 10 µM (inactive) | > 10 µM (inactive) | > 10 µM (inactive) | > 10 µM (inactive) | > 10 µM (inactive) | > 10 µM (inactive) | > 10 µM (inactive) | > 10 µM (inactive) | > 10 µM (inactive) | – |
| c1ccc2c(c1)nc1n2CNCC1 | > 100 µM (inactive) | > 100 µM (inactive) | > 100 µM (inactive) | > 100 µM (inactive) | > 100 µM (inactive) | > 100 µM (inactive) | > 100 µM (inactive) | – | > 100 µM (inactive) | > 100 µM (inactive) | > 100 µM (inactive) | 58.5 µM (inactive) | 79.3 µM (inactive) | > 100 µM (inactive) | 48.3 µM (inactive) | 68.5 µM (inactive) | > 100 µM (inactive) | 24.2 µM (inactive) | 43.1 µM (inactive) | > 100 µM (inactive) |
| CCC/C(Cl)=N/OC(=O)Nc1cc(C(F)(F)F)ccc1OC | 7.24 µM (inactive) | 2.43 µM (inactive) | 16.1 µM (inactive) | 18.5 µM (inactive) | 19.5 µM (inactive) | 16.9 µM (inactive) | 13.2 µM (inactive) | 1.79 µM (inactive) | 13.4 µM (inactive) | 6.17 µM (inactive) | 17.5 µM (inactive) | 16.1 µM (inactive) | 16.4 µM (inactive) | 19.5 µM (inactive) | 14.5 µM (inactive) | 1.77 µM (inactive) | 16.5 µM (inactive) | 4.46 µM (inactive) | 1.56 µM (inactive) | 17.6 µM (inactive) |
| C(=N/NC1=NCCN1)/c1c2ccccc2c(/C=N\NC2=NCCN2)c2ccccc12 | 0.149 µM (active) | 0.0731 µM (active) | 0.147 µM (active) | 1.03 µM (active) | 0.0279 µM (active) | 0.14 µM (active) | 0.221 µM (active) | 0.0664 µM (active) | 0.0376 µM (active) | 0.177 µM (active) | 88.3 µM (inactive) | 0.252 µM (active) | 9.44 µM (inactive) | 0.0369 µM (active) | 0.259 µM (active) | 0.0528 µM (active) | 0.344 µM (active) | 0.0931 µM (active) | 0.0698 µM (active) | 0.239 µM (active) |
| CN(C)/C=N/S(=O)(=O)c1nn2c(C=O)c(-c3ccc([N+](=O)[O-])cc3)nc2s1 | 16.6 µM (inactive) | 12.6 µM (inactive) | 10.4 µM (inactive) | 5.73 µM (inactive) | 13.6 µM (inactive) | 17.4 µM (inactive) | 2.03 µM (inactive) | 2.43 µM (inactive) | 6.3 µM (inactive) | 53.7 µM (inactive) | 8.85 µM (inactive) | 3.67 µM (inactive) | 2.61 µM (inactive) | 22.8 µM (inactive) | 4.23 µM (inactive) | 1.38 µM (inactive) | 9.44 µM (inactive) | 2.93 µM (inactive) | 1.27 µM (inactive) | 23.4 µM (inactive) |
| C=CC(=O)C#Cc1cnc(OC)nc1OC | 24.4 µM (inactive) | 1.39 µM (inactive) | 22.1 µM (inactive) | 15.6 µM (inactive) | 24.6 µM (inactive) | 19 µM (inactive) | 7.43 µM (inactive) | 1.38 µM (inactive) | 16.6 µM (inactive) | > 100 µM (inactive) | 31.3 µM (inactive) | 26.7 µM (inactive) | 16.9 µM (inactive) | 59 µM (inactive) | 10.4 µM (inactive) | 1.09 µM (active) | 6.38 µM (inactive) | 5.46 µM (inactive) | 6.41 µM (inactive) | 16.1 µM (inactive) |
| CCCCCCCCCc1cc(O)c(O)cc1CCCCCCCCC | > 10 µM (inactive) | > 10 µM (inactive) | > 10 µM (inactive) | > 10 µM (inactive) | > 10 µM (inactive) | > 10 µM (inactive) | > 10 µM (inactive) | > 10 µM (inactive) | > 10 µM (inactive) | > 10 µM (inactive) | > 10 µM (inactive) | > 10 µM (inactive) | > 10 µM (inactive) | > 10 µM (inactive) | > 10 µM (inactive) | > 10 µM (inactive) | > 10 µM (inactive) | > 10 µM (inactive) | > 10 µM (inactive) | > 10 µM (inactive) |
